Measurements as given in paper PMC7306766 (Proceedings of the National Academy of Sciences of the …, 2020).

Target: T1, mouse HCN2 (Mus musculus, UniProt O88703)
T1 sequence (O88703 1-863): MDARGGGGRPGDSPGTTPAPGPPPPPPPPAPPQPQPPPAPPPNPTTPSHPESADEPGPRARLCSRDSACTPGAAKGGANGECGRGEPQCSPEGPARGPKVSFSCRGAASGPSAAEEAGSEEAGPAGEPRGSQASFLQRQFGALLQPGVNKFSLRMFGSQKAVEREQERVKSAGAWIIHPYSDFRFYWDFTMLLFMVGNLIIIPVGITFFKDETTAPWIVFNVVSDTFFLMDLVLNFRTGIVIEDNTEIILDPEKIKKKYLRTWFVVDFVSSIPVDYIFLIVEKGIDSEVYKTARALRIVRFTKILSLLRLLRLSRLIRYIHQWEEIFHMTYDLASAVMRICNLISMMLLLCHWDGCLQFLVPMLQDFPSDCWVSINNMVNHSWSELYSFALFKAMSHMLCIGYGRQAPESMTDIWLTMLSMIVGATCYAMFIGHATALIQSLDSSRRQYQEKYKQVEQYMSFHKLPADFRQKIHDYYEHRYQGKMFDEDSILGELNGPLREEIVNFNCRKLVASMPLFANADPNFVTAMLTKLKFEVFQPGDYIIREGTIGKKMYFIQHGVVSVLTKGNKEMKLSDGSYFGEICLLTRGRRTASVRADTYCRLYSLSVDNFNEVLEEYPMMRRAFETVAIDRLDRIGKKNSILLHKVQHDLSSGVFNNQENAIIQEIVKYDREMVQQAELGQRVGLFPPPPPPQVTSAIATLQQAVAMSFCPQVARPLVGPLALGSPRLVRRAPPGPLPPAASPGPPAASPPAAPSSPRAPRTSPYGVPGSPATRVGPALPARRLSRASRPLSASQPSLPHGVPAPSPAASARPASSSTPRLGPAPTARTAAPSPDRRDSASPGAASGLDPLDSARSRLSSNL
Test: patch clamp, excised inside-out patches from HEK cells
Type: biochemical
Conditions: open-channel pore blocker

CCN(c1ccccc1)c1cc(NC)[n+](C)c(C)n1 [ZD7288]
% inhibition at 200 μM: mean relative inhibition of zebrafish HCNL1 and mouse HCN2 in response to ZD7288
